The values below come from BindingDB's records for patent US20250129027 (Apogee Pharmaceuticals, 2025).

A word on the IC50: it is the concentration that inhibits the measured activity by half. A high value points to lower potency.

The structures appear in SMILES notation.

The first test concerns the target T1, Fatty-acid amide hydrolase 1 (Homo sapiens, UniProt O00519).
T1 sequence (O00519 whole entry): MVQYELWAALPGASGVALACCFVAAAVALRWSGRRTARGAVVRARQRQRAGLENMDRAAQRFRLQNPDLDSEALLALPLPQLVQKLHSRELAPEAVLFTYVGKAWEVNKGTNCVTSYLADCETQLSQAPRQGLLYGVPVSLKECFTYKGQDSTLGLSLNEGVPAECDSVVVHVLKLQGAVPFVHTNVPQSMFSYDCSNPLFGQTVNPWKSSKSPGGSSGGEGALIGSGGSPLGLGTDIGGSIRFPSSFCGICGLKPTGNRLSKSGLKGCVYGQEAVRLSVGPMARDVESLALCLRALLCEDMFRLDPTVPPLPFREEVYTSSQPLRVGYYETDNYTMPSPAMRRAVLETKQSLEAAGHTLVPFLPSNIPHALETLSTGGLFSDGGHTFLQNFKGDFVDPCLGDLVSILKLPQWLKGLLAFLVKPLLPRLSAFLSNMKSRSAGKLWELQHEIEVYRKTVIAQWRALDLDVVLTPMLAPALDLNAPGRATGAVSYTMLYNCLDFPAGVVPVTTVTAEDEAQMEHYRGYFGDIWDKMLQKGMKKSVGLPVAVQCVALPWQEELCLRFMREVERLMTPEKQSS
In words: In Vitro Inhibition on FAAH and MAGL Activity Assay. An excerpt: (§1) In brief, FAAH hydrolyzes AMC arachidonoyl amide resulting in the release of the fluorescent product, while the inhibitor will inhibit the FAAH activity and thus reduce the fluorescent signal. […] The absorbance of the yellow product can be analyzed using the plate reader.
As for `CN(C)c1ccc(OC(=O)NC2CCCC2)cc1-c1cncc(-c2nnco2)c1` [US20250129027, Example 183], the IC50 was above 1000 nM.
As to `O=Cc1cncc(-c2cccc(OC(=O)NC3CCCCC3)c2)c1` [US20250129027, Example 19], the 50% inhibitory concentration (IC50) is 1000 nM.
On the same count and under the same terms, next, `CN(C(=O)Oc1cccc(-c2cncc(-c3nnco3)c2)c1)C1CCCCCC1` [US20250129027, Example 144]: above 1000 nM.
The same measure, in the same setting: next, `CCCCCCCCCCCCCCNC(=O)Oc1cccc(-c2cncc(-c3nnco3)c2)c1` [US20250129027, Example 132]: below 20 nM.
In turn, `CCCCCCCCCCCCCCNC(=O)Oc1cccc(-c2cncc(C(=O)NO)c2)c1` [US20250129027, Example 24] had an IC50 below 10 nM.

Another test has as its target T2, Monoglyceride lipase (Homo sapiens, UniProt Q99685).
T2 sequence (Q99685 whole entry): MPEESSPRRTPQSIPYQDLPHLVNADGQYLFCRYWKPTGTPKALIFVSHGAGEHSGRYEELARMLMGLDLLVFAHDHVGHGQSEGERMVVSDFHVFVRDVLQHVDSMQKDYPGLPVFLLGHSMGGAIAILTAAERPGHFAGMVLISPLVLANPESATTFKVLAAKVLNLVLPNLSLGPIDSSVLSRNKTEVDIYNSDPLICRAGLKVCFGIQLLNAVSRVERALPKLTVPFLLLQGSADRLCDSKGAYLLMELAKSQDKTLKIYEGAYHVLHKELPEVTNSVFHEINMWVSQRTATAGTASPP
The test is described as above.
Excerpt: as §1
Take `CCCCCCCCNC(=O)Oc1cccc(-c2cncc(C(=O)OC)c2)c1` [US20250129027, Example 10]: the IC50 is above 1 µM.
Same read-out and setting: next, `CCCCCNC(=O)Oc1cccc(-c2cncc(C(=O)OCC)c2)c1` [US20250129027, Example 1]: above 10 µM.
Still for that read-out and setting: next, `CCCCCCCCNC(=O)Oc1ccc(OC)c(-c2cncc(-c3ccc[nH]3)c2)c1` [US20250129027, Example 41]: above 10 µM; `CCCCCCCNC(=O)Oc1ccc(OC)c(-c2cncc(-c3nnco3)c2)c1` [US20250129027, Example 166]: above 10 µM.
Still for that read-out and setting: next, `CCCCCCCCNC(=O)Oc1cccc(-c2cncc(-c3nnco3)c2)c1` [US20250129027, Example 130]: above 10 µM.
`CCCCCCCNC(=O)Oc1cccc(-c2cncc(C#N)c2)c1` [US20250129027, Example 26] yielded a half-maximal inhibitory concentration (IC50) above 10 µM.
Same read-out and setting: next, `CCCCCCCCNC(=O)Oc1cccc(-c2cncc(C(F)(F)F)c2)c1` [US20250129027, Example 30]: above 10 µM.
Turning to `CN(C)c1ccc(OC(=O)NC2CCCC2)cc1-c1cncc(-c2nnco2)c1` [US20250129027, Example 183], the IC50 is above 10 µM.
Same read-out and setting: next, `O=Cc1cncc(-c2cccc(OC(=O)NC3CCCCC3)c2)c1` [US20250129027, Example 19]: above 10 µM; `CN(C(=O)Oc1cccc(-c2cncc(-c3nnco3)c2)c1)C1CCCCCC1` [US20250129027, Example 144]: above 10 µM; `CCCCCCCNC(=O)Oc1ccc(O)c(-c2cncc(-c3nnco3)c2)c1` [US20250129027, Example 156]: above 20 µM.
Still for that read-out and setting: next, `CCCCCCCCNC(=O)Oc1ccc(OC(F)(F)F)c(-c2cncc(-c3ncco3)c2)c1` [US20250129027, Example 88]: 10 µM; `CCCCCCCNC(=O)Oc1cccc(-c2cncc(C(=O)OC)c2)c1` [US20250129027, Example 9]: above 10 µM.
Same read-out and setting: next, `CCCCCCCCNC(=O)Oc1ccc(OC)c(-c2cncc(-c3nnco3)c2)c1` [US20250129027, Example 167]: above 10 µM; `CCCCCCCCNC(=O)Oc1cccc(-c2cncc(-c3ccco3)c2)c1` [US20250129027, Example 47]: 10 µM.
Compound `CCCCCCCCNC(=O)Oc1cccc(-c2cncc(C(=O)OCC)c2)c1` [US20250129027, Example 3] returned an IC50 above 10 µM.
For the compound `CCCCCCCCCCCCNC(=O)Oc1cccc(-c2cncc(-c3nnco3)c2)c1` [US20250129027, Example 131], the half-maximal inhibitory concentration (IC50) was below 10 µM.
Still for that read-out and setting: next, `CCCCCCCCNC(=O)Oc1cccc(-c2cncc(C#N)c2)c1` [US20250129027, Example 27]: above 10 µM; `CCCCCCCCNC(=O)Oc1ccc(O)c(-c2cncc(-c3nnco3)c2)c1` [US20250129027, Example 157]: above 10 µM.
Still for that read-out and setting: next, `CCCCCCNC(=O)Oc1cccc(-c2cncc(-c3nnco3)c2)c1` [US20250129027, Example 128]: above 50 µM; `COc1ccc(OC(=O)NC2CCCCC2)cc1-c1cncc(-c2nncs2)c1` [US20250129027, Example 217]: above 10 µM; `CCCCCCCCNC(=O)Oc1ccc(OC)c(-c2cncc(-c3cccs3)c2)c1` [US20250129027, Example 65]: 10 µM.
`CCCCCCCCCCCCCCNC(=O)Oc1cccc(-c2cncc(-c3nnco3)c2)c1` [US20250129027, Example 132] yielded an IC50 below 10 µM.
Same read-out and setting: next, `CCCCCCCCCCCCCCNC(=O)Oc1cccc(-c2cncc(C(=O)NO)c2)c1` [US20250129027, Example 24]: above 10 µM; `CCCCCNC(=O)Oc1cccc(-c2cncc(C(=O)OC)c2)c1` [US20250129027, Example 8]: above 10 µM.
